We go through 1 compound from patent publication US8895746B2 (University of Central Florida Research Foundation, Inc., priority 2009, dated 2014).

In experiment [1] the test system is Stat3. The experiment is described as follows: Intracellular Stat3 activation: EMSA of nuclear extracts from treated NIH3T3/v-Src, Panc-1 and MDA-MB-231 cells. It counts as cell-based, mouse, human. The conditions noted are these: 50 μM, 24 h, Panc-1, MDA-MB-231. Here is the method:
Nuclear extract preparations and electrophoretic mobility shift assay (EMSA) were carried out as previously described (28,33). The ^32P-labeled oligonucleotide probes used were hSIE (high affinity sis-inducible element from the c-fos gene, m67 variant, 5′[…]; SEQ ID NO:5) that binds Stat1 and Stat3 (34) and MGFe (mammary gland factor element from the bovine β-casein gene promoter, 5′-[…]; SEQ ID NO:6) for Stat1 and Stat5 binding (35,36). Except where indicated, nuclear extracts were pre-incubated with compound for 30 min at room temperature prior to incubation with the radiolabeled probe for 30 min at 30° C. before subjecting to EMSA analysis. Bands corresponding to DNA-binding activities were scanned and quantified for each concentration of compound using ImageQuant and plotted as percent of control (vehicle) against concentration of compound, from which the IC50 values were derived, as previously reported (37).
Stat3 is constitutively activated in a variety of malignant cells, including human breast and pancreatic cancer cells (9, 10, 20).
Twenty-four hours after treatment, nuclear extracts were prepared from cells and subjected to Stat3 DNA-binding assay in vitro using the radiolabeled hSIE probe and analyzed by EMSA.

Experiment [2] deals with NIH3T3. The experiment is described as follows: CyQuant cell viability. It counts as cell-based, mouse. From the text:
(§1) Aberrant Stat3 promotes malignant cell proliferation, survival and malignant transformation (10, 20, 42). Given that S3I201.1066 disrupts Stat3 activation, we asked the question whether this agent is able to selectively decrease the viability and growth of malignant cells that harbor aberrant Stat3 activity.

Experiment [3] concerns Stat3-null MEFs (Stat3−/−). Description: CyQuant cell viability. It counts as cell-based, mouse.
Excerpt: as §1

The subject of experiment [4] is NIH3T3/v-Ras. Description: Soft-agar colony formation assay. It counts as cell-based, mouse. As to conditions: concentrations that inhibit Stat3. Here is the method: Colony formation assays were carried out in 6-well dishes, as described previously (16,37). Briefly, each well contained 1.5 ml of 1% agarose in Dulbeco's modified Eagle's medium as the bottom layer and 1.5 ml of 0.5% agarose in Dulbeco's modified Eagle's medium containing 4000 or 6000 NIH3T3/v-Src or NIH3T3/v-Ras fibroblasts, respectively, as the top layer. Treatment with S3I201.1066 was initiated 1 day after seeding cells by adding 80 μl of medium with or without S3I20.1.1066, and repeating every 3 days, until large colonies were evident. Colonies were quantified by staining with 20 μl of 1 mg/ml crystal violet, incubating at 37° C. overnight, and counting the next day under phase contrast microscope.

The target in experiment [5] is Stat3 (Mus musculus, UniProt P42227). Description: Fluorescence Polarization assay, Stat3 binding to 5-carboxyfluorescein-GpYLPQTV-NH2 probe. Set-up: Coding regions for the murine Stat3 protein; made in house; host or cells: E. coli BL21(DE3); species or system murine. As to conditions: IC50, disruption of Stat3 binding to pTyr peptide probe, 150 nM Stat3, 10 nM probe. Here is the method: Coding regions for the murine Stat3 protein and Stat3 SH2 domain were amplified by PCR and cloned into vectors pET-44 Ek/LIC (Novagen) and pET SUMO (Invitrogen), respectively.
Stat3 (Mus musculus, UniProt P42227), sequence (P42227 whole entry, the tested form may be a part): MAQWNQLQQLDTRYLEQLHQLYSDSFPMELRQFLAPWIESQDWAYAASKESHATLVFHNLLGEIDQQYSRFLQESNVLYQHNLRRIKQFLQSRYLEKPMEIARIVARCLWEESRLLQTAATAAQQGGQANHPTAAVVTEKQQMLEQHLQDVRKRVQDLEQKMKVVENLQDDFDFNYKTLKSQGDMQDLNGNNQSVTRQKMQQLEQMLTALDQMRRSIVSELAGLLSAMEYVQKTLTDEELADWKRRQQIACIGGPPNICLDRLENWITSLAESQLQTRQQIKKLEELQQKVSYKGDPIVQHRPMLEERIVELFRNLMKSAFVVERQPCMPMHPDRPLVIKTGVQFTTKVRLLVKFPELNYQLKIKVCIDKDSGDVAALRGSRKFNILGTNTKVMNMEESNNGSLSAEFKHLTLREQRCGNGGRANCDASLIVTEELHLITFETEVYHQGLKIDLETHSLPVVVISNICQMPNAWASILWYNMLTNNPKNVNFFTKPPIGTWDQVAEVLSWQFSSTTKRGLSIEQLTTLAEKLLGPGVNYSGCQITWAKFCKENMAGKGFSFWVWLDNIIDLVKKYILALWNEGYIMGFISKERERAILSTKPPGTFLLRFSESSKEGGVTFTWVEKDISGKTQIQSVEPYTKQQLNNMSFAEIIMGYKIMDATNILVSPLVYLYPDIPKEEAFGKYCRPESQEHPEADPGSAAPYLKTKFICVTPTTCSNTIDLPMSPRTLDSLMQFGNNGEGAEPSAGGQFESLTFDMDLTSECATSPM
Fluorescence Polarization (FP) Assay was conducted as previously reported (23), with some modification using the phospho-peptide, 5-carboxyfluorescein-GpYLPQTV-NH2 (phosphorylated SEQ ID NO:7) (where pY represents phospho-Tyr) as probe and Stat3. The FP assay was used to evaluate the binding of agents to Stat3 and to determine the ability to disrupt the Stat3:pTyr peptide interaction. A fixed concentration of the fluorescently-labeled peptide probe (10 nM) was incubated with increasing concentration of the Stat3 protein for 30 min at room temperature in the buffer, 50 mM NaCI, 10 mM HEPES, 1 mM EDTA, 0.1% Nonidet P-40, and the fluorescent polarization measurements were determined using the POLARstar Omega (BMG LABTECH, Durham, N.C.), with the set gain adjustment at 35 mP. The Z′ value was derived per the equation Z′=1−(3 SDbound+3 SD free)/(mPbound−mPfree), where SD is the standard deviation and mP is the average of fluorescence polarization. In the bound state, 10 nM 5-carboxyfluorescein-GpYLPQTV-NH2 (phosphorylated SEQ ID NO:7) was incubated with 150 nM purified Stat3 protein, while the free (unbound) state was the same mixture, but incubated with an additional 10 IJM unlabeled Ac-GpYLPQTV-NH2 (phosphorylated SEQ ID NO:7). For evaluating agents, Stat3 protein (150 nM) was incubated with serial concentrations of S31-201.1066 at 30° C. for 60 min in the indicated assay buffer conditions. Prior to the addition of the fluorescence probe, the protein:S31-201.1066 mixtures were allowed to equilibrate at room temperature for 15 min. Probe was added at a final concentration of 10 nM and incubated for 30 min at room temperature following which the FP measurements were taken using the POLARstar Omega, with the set gain adjustment at 35 mP.
The FP assay was used to further test the computational modeling prediction of the ability of S31-201.1066 to disrupt Stat3 interaction with its cognate pTyr peptide.

Experiment [6] relates to colocalization of Stat3 and EGFR and Stat3 nuclear translocation. Description: Immunofluorescence/confocal microscopy in EGF-stimulated NIH3T3/hEGFR. It counts as cell-based, mouse. The conditions noted are these: 50 μM pre-treatment 30 min, EGF 10 min. Here is the method:
Cells were fixed with ice-cold methanol for 15 min, washed 3 times in PBS, permeabilized with 0.2% Triton® X-100 for 10 min, and further washed 3-4 times with PBS. Specimens were then blocked in 1% BSA for 30 min and incubated with EGFR (Santa Cruz) or Stat3 (Cell Signaling Tech) antibody at 1:50 dilution at 4° C. overnight. Subsequently, cells were rinsed 4-5 times in PBS, incubated with Alexafluor 546 rat antibody for EGFR detection and Alexa fluor 488 rabbit antibody for Stat3 detection (Invitrogen) for 1 h at room temperature in the dark. Specimens were then washed 5 times with PBS, covered with cover slides with […] mounting medium containing DAPI, and examined immediately under a Leica TCS SP5 confocal microscope (Germany) at appropriate wavelengths. Images were captured and processed using the Leica TCS SP 5 software.
Cells were then subjected to immunostaining for EGFR (red) and Stat3 (green) and analyzed by confocal microscopy for EGF-induced colocalization of Stat3 and EGFR and for Stat3 nuclear translocation, as previously performed (17). In the resting NIH3T3/hEGFR fibroblasts, EGFR (red) is widely localized at the plasma membrane, while Stat3 (green) is localized at both the plasma membrane and in the cytoplasm, with a minimal colocalization with EGFR at the plasma membrane and no visible presence in the nucleus (stained blue for DAPI) (FIG. 4A upper panel).

Values joined by “and” are separate entries in the source; they are usually repeats but may differ in a detail not shown here. Equal entries are not always repeated.

The IC50 is the concentration needed to halve the response being measured.

`Cc1ccc(S(=O)(=O)N(C)CC(=O)N(Cc2ccc(C3CCCCC3)cc2)c2ccc(C(=O)O)c(O)c2)cc1` [S3I-201.1066]: in experiment [1], the “constitutive Stat3 activation in treated cells” value is reported as “significant inhibition”. Further, the “derived IC60 values, viability” value in experiment [2] and in experiment [3] was greater than 200 μMm in each case. Further, the soft-agar growth result in experiment [4] was “minimal effect”. Besides, the IC50 in experiment [5] was 45 µM and 23 µM and 20 µM. Also, the “EGF-stimulated colocalization between EGFR and Stat3 and Stat3 nuclear localization” value in experiment [6] is reported as “strongly blocked”.
